According to patent US11590093B2, “Kit, composition, and combination therapy for fragile X syndrome” (priority 2018, dated 2023):
“Also recorded” adds a separate entry of the source.

Key:
Conditions in all cases: osmotic minipumps s.c. 15 days, sulindac 5 mg/kg, metoprolol 10 mg/kg, ibudilast 3 mg/kg, sertraline 1 mg/kg, quercetin 1 mg/kg (100 mg/kg in combination), cannabidiol 5 mg/kg
[1] = test system: Fmr1 KO2 mice; test: Social interaction, three-chambered sociability task; format: in vivo
Experimental: In the three-chambered sociability task, a subject mouse was evaluated for its exploration of a novel social stimulus (novel mouse). The three-chambered social approach task monitors direct social approach behaviors when a subject mouse is presented with the choice of spending time with either a novel mouse or an empty cup. Sociability is defined as the subject mouse spending more time in the chamber containing the mouse than in the empty chamber. Preference for social novelty is defined as spending more time in the chamber with the novel mouse. The apparatus is a rectangular three-chamber box, where each chamber measures 20 cm (length)×40.5 cm (width)×22 cm (height). Dividing walls are made from clear perplex, with small openings (10 cm width×5 cm height) that allow access into each chamber. The three chamber task was lit from below (10 lux). The mice were allowed to freely explore the three-chamber apparatus over three 10 min trials. During the trial one wire cup was placed upside down in one of the side chambers and a novel mouse was placed under another wire cup in the other side chamber (novel mouse stimulus), leaving the middle chamber empty. The location of the novel mouse across trials was counterbalanced to minimize any potential confound due to a preference for chamber location. The time spent exploring the novel mice was scored as exploration ratio.

[2] = test system: Fmr1 KO2 mice
Excerpt: (§1) The Fmr1 KO2 it is both, protein and mRNA null. In this study we used Fmr1 KO2 and wild-type (WT) littermates generated on a C57BL/6J background and repeatedly backcrossed onto a C57BL/6J background for more than eight generations.
(§2) There were four treatment groups per compound/compound combination in the study with 10 male mice used per treatment group (all at 8 weeks of age): Group 1: Fmr1 KO2 mice treated with vehicle (Fmr1 KO2-V), Group 2: wild-type littermate mice treated with vehicle (WT-V), Group 3: Fmr1 KO2 mice treated with compounds (Fmr1 KO—[name of drug(s)]) and Group 4: wild-type littermate mice treated with compounds (WT—[name of drug(s)]).
The test was performed in individual cages. Normal bedding covered the floor to a depth of 0.5 cm. Each cage was supplied with a “Nestlet,” a 5 cm square of pressed cotton batting (Ancare). Mice were placed individually into the nesting cages 1 hr. before the dark phase, and the results were assessed the next morning. Nest building was scored on a 5 point scale.
Score 1: The Nestlet was largely untouched (>90% intact).
Score 2: The Nestlet was partially torn up (50-90% remaining intact).
Score 3: The Nestlet was mostly shredded but often there was no identifiable nest site: <50% of the Nestlet […]

[3] = test system: Fmr1 KO2 mice; remark: listed apart in the source
Excerpt: as §1, §2
The dependent measure used in contextual fear conditioning was a freezing response following a pairing of an unconditioned stimulus (foot shock), with a conditioned stimulus, a particular context. Freezing is a species-specific response to fear, which has been defined as “absence of movement except for respiration”. This may last for seconds to minutes depending on the strength of the aversive stimulus, the number of presentations, and the degree of learning achieved by the subject. Testing involved placing the animal in a novel environment (dark chamber), providing an aversive stimulus (a 1-sec electric shock, 0.2 mA, to the paws), and then removing it.

[4] = test system: Fmr1 KO2 mice; test: Open field (hyperactivity, locomotor activity); format: in vivo
Excerpt: as §1, §2
The open-field apparatus was used to test hyperactivity. The apparatus was a gray PVC-enclosed arena […] divided into a 10×10 cm grid. Mice were brought to the experimental room 5-20 min before testing. A mouse was placed into a corner square facing the corner and observed for 3 min. The number of squares entered by the whole body (locomotor activity) were counted. The movement of the mouse around the field was recorded with a video tracking device for 3 min (version NT4.0, Viewpoint).

Structure (SMILES) | Sociability (exploration of novel mouse) [1] | Nesting behavior [2] | Contextual fear conditioning (learning and memory) [3] | Open field: hyperactivity [4] | Sociability (exploration of novel mouse) ([1]; listed as Sulindac)
COCCc1ccc(OCC(O)CNC(C)C)cc1.O=C(O)C(O)C(O)C(=O)O (racemic) [metoprolol, (±) 1-(Isopropylamino)-3-[p-(β-methoxyethyl)phenoxy]-2-propanol (+)-tartrate salt] | No significant difference was found in sociability; also recorded: partially rescue nesting behavior and sociability | partially rescued; also recorded: partially rescue nesting behavior and sociability | fails to improve the learning deficits | normalized Fmr1 KO2 mice hyperactivity; also recorded: normalize hyperactivity | 
O=c1c(O)c(-c2ccc(O)c(O)c2)oc2cc(O)cc(O)c12 [quercetin] |  |  | neither sulindac nor quercetin alone fully rescues fear conditioning |  | 
CN[C@H]1CC[C@@H](c2ccc(Cl)c(Cl)c2)c2ccccc21 [sertraline] | neither sulindac nor sertraline alone rescues sociability or fear conditioning |  | neither sulindac nor sertraline alone rescues sociability or fear conditioning |  | 
CC1=C(CC(=O)O)c2cc(F)ccc2/C1=C\c1ccc([S+](C)[O-])cc1 (stereo not drawn) [sulindac, (Z)-5-fluoro-2-methyl-1-[[p-(methylsulfinyl)phenyl]methylene]-1H-indene-3-acetic acid] | partially rescuing contextual fear conditioning and sociability; also recorded: neither sulindac nor ibudilast alone rescues sociability; also recorded: neither sulindac nor sertraline alone rescues sociability or fear conditioning | normalization in nesting behavior; also recorded: fully rescuing open field and nesting behavior | ameliorates the Fmr1 KO deficit in learning and memory; also recorded: partially rescuing contextual fear conditioning and sociability; also recorded: neither sulindac nor sertraline alone rescues sociability or fear conditioning; also recorded: neither sulindac nor quercetin alone fully rescues fear conditioning | normalizes hyperactivity; also recorded: fully rescuing open field and nesting behavior | partially improved such impairment
